system: Streptozotocin induced diabetic mice; assay: Antidiabetic activity in Streptozotocin induced diabetic mice; format: in vivo; details: plasma, 50 mg/kg oral for 7 days, fasted 6 hours, compared to control group
Protocol: Male Swiss albino mice were used in the study at the age of 10 weeks. Diabetes was induced in animals by injecting Streptozotocin by i.p. route at a dose of 200-mg/kg-body weight. 48 hours after Streptozotocin administration, the animals were kept for fasting for 6 hours and blood was collected and plasma separated and glucose was estimated. Animals showing greater than 200 mg/dl glucose levels were considered as diabetic and these animals were randomly distributed into various groups. The compounds listed in the table 2 were administered at a dose of 50-mg/kg body weight by oral route for 7 days. Later animals were fasted for 6 hours and blood was collected and plasma separated. Biochemical estimations like glucose, cholesterol and triglycerides were carried out using the plasma. The effect of compounds mentioned in the table was expressed in terms of percentage reduction in biochemical values as compared to control group.

| Compound | % Reduction Cholesterol | % Reduction Triglyceride | % Reduction Glucose |
| --- | --- | --- | --- |
| CCN(c1ccc(Oc2ccc(C[C@H]3COC(=O)N3CC)cc2)cc1)c1ncccc1C#N [Example 24, (4S)-2-[ethyl(4-{4-[(3-ethyl-2-oxo-1,3-oxazolidin-4-yl)methyl]phenoxy}phenyl)amino]nicotinonitrile] | 15.9% | 13.7% | – |
| CN1C(=O)OC[C@@H]1Cc1ccc(Oc2ccc(Nc3ncccc3C#N)cc2F)cc1 [Example 22, 2-{[3-fluoro-4-(4-{[(4S)-3-methyl-2-oxo-1,3-oxazolidin-4-yl]methyl}phenoxy)phenyl]amino}nicotinonitrile] | – | 5.2% | – |
| CN(c1ccc(Oc2ccc(C[C@H]3COC(=O)N3C)cc2)cc1)c1ncccc1C#N [Example 45, (4S)-2-[methyl(4-{4-[(3-methyl-2-oxo-1,3-oxazolidin-4-yl)methyl]phenoxy}phenyl)amino]nicotinonitrile] | 10% | 53.8% | 39% |

system: 3T3-L1 cells; assay: Glucose uptake assay using 3T3-L1 cells; format: cell-based; details: differentiated 3T3-L1 adipocytes, 1 μM, 72 hours, 14C deoxyglucose uptake for 10 minutes; with reference to stimulation index of BLX-1002
Protocol: 3T3-L1 cells were differentiated by the addition of differentiation cocktail (72 μg/ml insulin, 0.5 mM IBMX, 400 ng/ml Dexamethasone) for 4 days and later fed with media without differentiation cocktail for 7-8 days. After differentiation the cells were incubated with the either the reference compound BLX-1002 or compounds listed in the table 1 at 1 μM concentrations for 72 hours and carried out the glucose uptake assay for 10 minutes by the addition of KRP buffer supplemented with 2.5 μCi/ml ^14C deoxy glucose. Stimulation Index is defined as the amount of ^14C Deoxyglucose uptake induced by 1 μM of BLX-1002 incubated for 72 hours in an assay condition as per protocol described above with differentiated 3T3-L1 adipocytes. Values of compounds mentioned in table-1 are with reference to stimulation index of reference compound BLX-1002.

| Compound | Stimulation Index |
| --- | --- |
| CCN1C(=O)OC[C@@H]1Cc1ccc(Oc2ccc(Nc3ncccc3C#N)cc2F)cc1 [Example 13, 2-{[3-fluoro-4-(4-{[(4S)-3-ethyl-2-oxo-1,3-oxazolidin-4-yl]methyl}phenoxy)phenyl]amino}nicotinonitrile] | 0.874 |
| CCN1C(=O)OC[C@@H]1Cc1ccc(Oc2ccc(Nc3ccccn3)cc2F)cc1 [Example 8, (4S)-4-[4-(2-fluoro-4-{[5-pyridin-2-yl]amino}phenoxy)benzyl]-3-ethyl-1,3-oxazolidin-2-one] | 1.049 |
| CCN1C(=O)OC[C@@H]1Cc1ccc(Oc2ccc(Nc3ncccc3[N+](=O)[O-])cc2F)cc1 [Example 12, (4S)-4-[4-(2-fluoro-4-{[3-nitropyridin-2-yl]amino}phenoxy)benzyl]-3-ethyl-1,3-oxazolidin-2-one] | 0.935 |
| CN1C(=O)OC[C@@H]1Cc1ccc(Oc2ccc(Nc3ccc([N+](=O)[O-])cn3)cc2)cc1 [Example 2, (4S)4-(4-{4-[(5-nitropyridin-2-yl)amino]phenoxy}benzyl)-3-methyl-1,3-oxazolidin-2-one] | 0.935 |
| CCN1C(=O)OC[C@@H]1Cc1ccc(Oc2ccc(Nc3ncccc3C#N)cc2)cc1 [Example 14, 2-[(4-{4-[(3-ethyl-2-oxo-1,3-oxazolidin-4-yl)methyl]phenoxy}phenyl)amino]nicotinonitrile] | 0.827 |
| CN1C(=O)OC[C@@H]1Cc1ccc(Oc2ccc(Nc3ccccn3)cc2)cc1 [Example 1, 3-methyl-4-{4-[4-(pyridin-2-ylamino)phenoxy]benzyl}-1,3-oxazolidin-2-one] | 0.827 |
